The values that follow come from patent US8524716B2, “Macrocyclic indoles as hepatitis C virus inhibitors” (priority 2007, dated 2013).

Assay [1] has as its system HCV replicons (NS3-NS5B regions of HCV type 1b) in Huh-Luc cells. The experiment in a line: HCV replicon assay in Huh-7 luc/neo (Huh-Luc) cells, luciferase readout. It is filed as cell-based. To be noted: three days incubation, luciferase activity. The source says: The compounds of formula (I) were examined for activity in the inhibition of HCV RNA replication in a cellular assay. […] The cellular assay was based on a bicistronic expression construct, as described by Lohmann et al. (1999) Science vol. 285 pp. 110-113 with modifications described by Krieger et al. (2001) Journal of Virology 75: 4614-4624, in a multi-target screening strategy. In essence, the method was as follows.
The assay utilized the stably transfected cell line Huh-7 luc/neo (hereafter referred to as Huh-Luc). This cell line harbors an RNA encoding a bicistronic expression construct comprising the wild type NS3-NS5B regions of HCV type 1b translated from an Internal Ribosome Entry Site (IRES) from encephalomyocarditis virus (EMCV), preceded by a reporter portion (firefly luciferase), and a selectable marker portion (neo^R, neomycine phosphotransferase). The construct is bordered by 5′ and 3′ NTRs (non-translated regions) from HCV type 1b. Continued culture of the replicon cells in the presence of G418 (neo^R) is dependent on the replication of the HCV RNA. The stably transfected replicon cells that express HCV RNA, which replicates autonomously and to high levels, encoding inter alia luciferase, were used for screening the antiviral compounds.
The replicon cells were plated in 384 well plates in the presence of the test and control compounds which were added in various concentrations. Following an incubation of three days, HCV replication was measured by assaying luciferase activity (using standard luciferase assay substrates and reagents and a Perkin Elmer ViewLux™ ultraHTS microplate imager). […] The inhibitory activity of the compound on luciferase activity was monitored on the Huh-Luc cells, enabling a dose-response curve for each test compound. EC50 values were then calculated, which value represents the amount of the compound required to decrease the level of detected luciferase activity by 50%, or more specifically, the ability of the genetically linked HCV replicon RNA to replicate.
A general note: In antiviral work, replicon cells carry a viral genome segment that copies itself.

Another assay concerns the target HCV NS5B (Hepatitis C virus genotype 1b (strain HC-J4), UniProt O92972). The experiment in a line: biochemical. The class given is biochemical. The protocol:
The cDNA encoding NS5B amino acid 1-570 (HC-J4, genotype 1b, pCV-J4L6S, genebank accession number AF054247) was subcloned into the Nhe I and Xho I restriction sites of pET-21b. Expression of the subsequent His-tagged C-terminal 21 amino acid deleted NS5B was performed as follows:
The NS5B expression construct was transformed into E. coli BL21(DE3) (Novagen, Madison, Wis.). Five milliliters of LB-medium supplemented with ampicillin (50 μg/mL) was inoculated with one colony. When the pre-culture reached an optical density of 0.6 measured at 600 nm, it was transferred to fresh LB-medium supplemented with ampicillin, at a ratio of 1:200. Cells were grown to an optical density at 600 nm of 0.6, after which the expression cultures were shifted to a growth temperature of 20° C. following induction with isopropyl-1-thio-β-D-galactopyranoside and MgCl2 at a final concentration of 0.4 mM and 10 μM, respectively. After ten hours of induction, cells were harvested by centrifugation and resuspended in 20 mM Tris-HCl, pH 7.5, 300 mM NaCl, 10% glycerol, 0.1% NP40, 4 mM MgCl2, 5 mM DTT supplemented with EDTA-free Complete Protease Inhibitor (Roche, Basel, Switzerland). Cell suspensions were disrupted by sonication and incubated with 10-15 mg/L of DNase I (Roche, Basel, Switzerland) for 30 minutes. Cell debris was removed through ultracentrifugation at 30,000×g for 1 hour and clarified cell lysate was flash frozen and stored at −80° C. prior to purification.
Clarified cell lysate was thawed and subsequently loaded onto a 5 mL pre-packed HisTrap FF column equilibrated with 25 mM HEPES, pH 7.5, 500 mM NaCl, 10% glycerol and 5 mM DTT. Proteins were eluted with 500 mM imidazole at a flow rate of 1 mL/min. Fractions containing the protein of interest were applied onto a pre-packed 26/10 HiPrep Desalting Column equilibrated with 25 mM HEPES, pH 7.5, 150 mM NaCl, 10% glycerol and 5 mM DTT. The buffer-exchanged NS5B peak was then applied onto a 20 mL Poly-U Sepharose column. Protein was eluted with an increasing salt gradient and fractions collected. Protein purity was assessed on Nu-PAGE pre-cast gels (Invitrogen, Carlsbad, Calif.). Purified NS5B samples were concentrated using Centri-Prep concentrators (Millipore, Billerica, Mass., USA) and protein concentrations were determined by Bradford assay (Pierce, Rockford, Ill., USA).
Measurement of HCV NS5B polymerization activity was performed by evaluating the amount of radio labeled GTP incorporated by the enzyme in a newly synthesized RNA using heteropolymeric RNA template/primer. The high-throughput RNA dependent RNA polymerase (RdRp) assay was carried out in 384-well plates using 100 nM enzyme, 300 nM 5′-biotinylated oligo(rG13)/poly(rC) primer-template, 600 nM of GTP, and 0.1 μCi of [^3H]GTP in 25 mM Tris-HCl, pH 7.5, 5 mM MgCl2, 25 mM KCl, 17 mM NaCl and 3 mM of dithiothreitol (DTT). Test compounds were dissolved in DMSO. The test compounds were added to the preformed polymerase-template complex, and incubated at room temperature for 15 min before the addition of nucleoside triphosphates (NTP). The 30 μl reaction was terminated after 2 h at 25° C. upon addition of 30 μl A PVT-SPA beads (Amersham Biosciences RPNQ0009, 5 mg/ml in 0.5 M EDTA).

Where [2] appears, read: 100 nM enzyme, [3H]GTP incorporation, 2 h at 25° C., read-out: IC50 (μM) Enzymatic assay.

Read-outs that look alike come from different tables or passages of the source.

HCV NS5B, sequence (O92972 2420-3010 limits assumed): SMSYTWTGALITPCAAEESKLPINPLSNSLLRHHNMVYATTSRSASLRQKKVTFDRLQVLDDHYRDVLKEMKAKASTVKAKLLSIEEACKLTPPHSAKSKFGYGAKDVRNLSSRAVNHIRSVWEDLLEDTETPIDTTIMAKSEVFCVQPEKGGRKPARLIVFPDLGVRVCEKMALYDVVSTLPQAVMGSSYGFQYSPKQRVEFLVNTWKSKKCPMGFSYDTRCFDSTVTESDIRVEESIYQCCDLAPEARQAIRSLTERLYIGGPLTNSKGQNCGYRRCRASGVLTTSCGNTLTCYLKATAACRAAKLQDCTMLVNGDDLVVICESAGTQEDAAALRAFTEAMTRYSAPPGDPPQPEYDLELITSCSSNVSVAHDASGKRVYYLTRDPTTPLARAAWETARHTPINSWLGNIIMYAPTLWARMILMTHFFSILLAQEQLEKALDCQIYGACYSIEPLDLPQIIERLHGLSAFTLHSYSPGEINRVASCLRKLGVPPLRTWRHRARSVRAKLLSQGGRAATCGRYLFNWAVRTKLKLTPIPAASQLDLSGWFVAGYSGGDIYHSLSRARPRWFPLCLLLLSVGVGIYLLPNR

One may read the EC50 as the concentration giving half of the maximal effect. Regarding “17-Cyclohexyl-18-furan-3-yl-9-methyl-10,10-dioxo-10λ^6-thia-1,4,9,11-tetraaza-tricyclo[11.5.2.016,19]icosa-13(20),14,16(19),17-tetraene-3,12-dione [Cpd 28]”, the response in assay [1] was half-maximal at 1.58 µM (EC50). This counts as single-digit micromolar.

The term IC50 denotes the midpoint of a concentration-inhibition curve. With `O=C1Cn2c(-c3ccoc3)c(C3CCCCC3)c3ccc(cc32)C(=O)NCC/C=C\CCN1` [Cpd 1, 17-cyclohexyl-18-(furan-3-yl)-1,4,11-triaza-tricyclo-[11.5.2.0^16,19]icosa-7,13(20),14,16(19),17-pentaene-3,12-dione], the concentration for half-maximal inhibition (IC50) at HCV NS5B (setting [2]) turned out to be 2.2 µM. In assay [1] (Hepatitis C virus, Huh-7, 72 h), this molecule returned an EC50 of 3.4 µM.

Regarding `O=C1Cn2c(-c3ccoc3)c(C3CCCCC3)c3ccc(cc32)C(=O)NCCCCCCN1` [Cpd 2, 17-Cyclohexyl-18-(furan-3-yl)-1,4,11-triaza-tricyclo[11.5.2.0^16,19]icosa-13(20),14,16(19),17-tetraene-3,12-dione], the IC50 at HCV NS5B (setting [2]) was 9.5 µM. In addition, in assay [1] (Hepatitis C virus, Huh-7, 72 h), the EC50 was 4.3 µM.

For `CS(=O)(=O)N1CCN(c2ccc([N+](=O)[O-])cc2COc2ccc(-c3c(C4CCCCC4)c4ccc5cc4n3CC(=O)NCC/C=C\CCNC5=O)cc2)CC1` [Cpd 3, 17-cyclohexyl-18-[4-[2-(4-methanesulfonylpiperazin-1-yl)-5-nitrobenzyloxy]phenyl]-1,4,11-triazatricyclo[11.5.2.0^16,19]icosa-7,13(20),14,16(19),17-pentaene-3,12-dione], on HCV NS5B (setting [2]), the IC50 turned out to be 1.1 µM. The same molecule came in with an EC50 in assay [1] (Hepatitis C virus, Huh-7, 72 h) of 0.72 µM.

In the case of `CS(=O)(=O)N1CCN(c2ccc(N)cc2COc2ccc(-c3c(C4CCCCC4)c4ccc5cc4n3CC(=O)NCC/C=C\CCNC5=O)cc2)CC1` [Cpd 4, 17-cyclohexyl-18-[4-[2-(4-methanesulfonylpiperazin-1-yl)-5-amino-benzyloxy]phenyl]-1,4,11-triazatricyclo[11.5.2.0^16,19]icosa-7,13(20),14,16(19),17-pentaene-3,12-dione], at HCV NS5B (setting [2]), the IC50 turned out to be 0.27 µM. Also, a half-maximal effect in assay [1] (Hepatitis C virus, Huh-7, 72 h) (EC50) was put at 0.24 µM.

Take `CC(=O)Nc1ccc(N2CCN(S(C)(=O)=O)CC2)c(COc2ccc(-c3c(C4CCCCC4)c4ccc5cc4n3CC(=O)NCC/C=C\CCNC5=O)cc2)c1` [Cpd 5, 17-cyclohexyl-18-[4-[2-(4-methanesulfonylpiperazin-1-yl)-5-acetylamino-benzyloxy]phenyl]-1,4,11-triazatricyclo[11.5.2.0^16,19]icosa-7,13(20),14,16(19),17-pentaene-3,12-dione]: the 50% inhibitory concentration (IC50) on HCV NS5B (setting [2]) is 0.29 µM. In assay [1] (Hepatitis C virus, Huh-7, 72 h), this molecule had an EC50 of 0.58 µM.

With `O=C1Cn2c(-c3ccc(O)cc3)c(C3CCCCC3)c3ccc(cc32)C(=O)NCCCCCCN1` [Cpd 8], the IC50 at HCV NS5B (setting [2]) was 2.79 µM. The molecule also had an EC50 in assay [1] of more than 32 µM.

Take `COc1ccc(Br)c(COc2ccc(-c3c(C4CCCCC4)c4ccc5cc4n3CC(=O)NCCCCCCNC5=O)cc2)c1` [Cpd 9, 18-[4-(2-bromo-5-methoxybenzyloxy)phenyl]-17-cyclohexyl-1,4,11-triaza-tricyclo[11.5.2.0^16,19]icosa-13(20),14,16(19),17-tetraene-3,12-dione]: the IC50 on HCV NS5B (setting [2]) is 13 µM. The molecule also displayed an EC50 in assay [1] (Hepatitis C virus, Huh-7, 72 h) of 4.8 µM.

Consider `COc1ccc(-c2ccc(Cl)cc2)c(COc2ccc(-c3c(C4CCCCC4)c4ccc5cc4n3CC(=O)NCCCCCCNC5=O)cc2)c1` [Cpd 10, 18-[4-(4′-chloro-4-methoxybiphenyl-2-ylmethoxy)phenyl]-17-cyclohexyl-1,4,11-triazatricyclo[11.5.2.0^16,19]icosa-13(20),14,16(19),17-tetraene-3,12-dione], for which, at HCV NS5B, the midpoint of inhibition, the IC50, lay at 6.9 µM. The molecule also had an EC50 in assay [1] (Hepatitis C virus, Huh-7, 72 h) of more than 32 µM.

As to `O=C1Cn2c(-c3ccc(OCc4cc(N5CCCC5=O)ccc4N4CCOCC4)cc3)c(C3CCCCC3)c3ccc(cc32)C(=O)NCC/C=C\CCN1` [Cpd 11, 17-Cyclohexyl-18-[4-[2-morpholin-4-yl-5-(2-oxo-pyrrolidin-1-yl)-benzyloxy]-phenyl]-1,4,11-triaza-tricyclo[11.5.2.0^16,19]icosa-7,13(20),14,16(19),17-pentaene-3,12-dione], the IC50 on HCV NS5B (setting [2]) was 0.45 µM. In assay [1] (Hepatitis C virus, Huh-7, 72 h), the EC50 was determined as 0.69 µM.

With `CS(=O)(=O)N1CCN(c2ccc(N3CCCC3=O)cc2COc2ccc(-c3c(C4CCCCC4)c4ccc5cc4n3CC(=O)NCC/C=C\CCNC5=O)cc2)CC1` [Cpd 12, 17-Cyclohexyl-18-[4-[2-(4-methanesulfonyl-piperazin-1-yl)-5-(2-oxo-pyrrolidin-1-yl)-benzyloxy]-phenyl]-1,4,11-triaza-tricyclo[11.5.2.0^16,19]icosa-7,13(20),14,16(19),17-pentaene-3,12-dione], the IC50 on HCV NS5B (setting [2]) was 0.36 µM. This molecule also gave an EC50 in assay [1] (Hepatitis C virus, Huh-7, 72 h) of 0.27 µM.

In the case of `O=C1Cn2c(-c3ccc(OCc4cc(N5CCCC5=O)ccc4N4CCOCC4)cc3)c(C3CCCCC3)c3ccc(cc32)C(=O)NS(=O)(=O)CC=CCCN1` [Cpd 13, 17-Cyclohexyl-18-[4-[2-morpholin-4-yl-5-(2-oxo-pyrrolidin-1-yl)-benzyloxy]-phenyl]-10,10-dioxo-10λ^6-thia-1,4,11-triaza-tricyclo[11.5.2.0^16,19]icosa-7,13(20),14,16(19),17-pentaene-3,12-dione], inhibition against HCV NS5B was half-maximal at 0.04 µM (IC50). Besides, the EC50 in assay [1] (Hepatitis C virus, Huh-7, 72 h) is 2.36 µM.

In assay [1] (Hepatitis C virus, Huh-7, 72 h), `CN1C/C=C\CCNC(=O)Cn2c(-c3ccc(Cl)cc3)c(C3CCCCC3)c3ccc(cc32)C(=O)NS1(=O)=O` [Cpd 20, 19-(4-Chloro-phenyl)-18-cyclohexyl-10-methyl-11,11-dioxo-11λ^6-thia-1,4,10,12-tetraaza-tricyclo[12.5.2.017,20]henicosa-7,14(21),15,17(20),18-pentaene-3,13-dione] displayed an EC50 of 0.61 µM.

Consider `CN1CCCCCNC(=O)Cn2c(-c3ccccc3)c(C3CCCCC3)c3ccc(cc32)C(=O)NS1(=O)=O` [Cpd 22, 18-Cyclohexyl-10-methyl-11,11-dioxo-19-phenyl-11λ^6-thia-1,4,10,12-tetraaza-tricyclo[12.5.2.017,20]henicosa-14(21),15,17(20),18-tetraene-3,13-dione], for which, in assay [1] (Hepatitis C virus, Huh-7, 72 h), the EC50 stood at 0.43 µM.

As for `CN1CCCCCNC(=O)Cn2c(-c3ccoc3)c(C3CCCCC3)c3ccc(cc32)C(=O)NS1(=O)=O` [Cpd 30, 18-Cyclohexyl-19-furan-3-yl-10-methyl-11,11-dioxo-11λ^6-thia-1,4,10,12-tetraaza-tricyclo[12.5.2.017,20]henicosa-14(21),15,17(20),18-tetraene-3,13-dione], the EC50 in assay [1] (Hepatitis C virus, Huh-7, 72 h) amounted to 0.79 µM.
